Results: PMC9879403, “Oncolytic strategy using new bifunctional HDACs/BRD4 inhibitors against virus-associated lymphomas” (PLOS Pathogens, 2023)
Where two headings read alike, the source gives them in different places.

Columns and labels:
BCBL-1 = experiment: WST-1 cytotoxicity assay, BCBL-1 (KSHV+ PEL); assay type: cell-based; settings: BCBL1, 72 h
Description: (§1) Fig 2 Identification of newly synthesized dual inhibitors with anti-PEL activities. (A) The binding mode of (+)-JQ1 with BRD4^BD1 (PDB: 3MXF). BRD4^BD1 is shown as hot pink cartoon with gray surface. Asn140 in BRD4^BD1 is shown as sticks and colored in following pattern: atom C hot pink, atom N dark blue, and atom O yellow. (+)-JQ1 is shown as sticks and colored in following patten: atom C hot pink, atom N dark blue, atom O yellow, atom S golden, and atom Cl green. The solvent exposed region (SEG) of (+)-JQ1 are indicated with white arrow. (B) The binding modes of SAHA and entinostat with HDAC2 (PDB: 3MAX). HDAC2 is shown as blue cartoon with gray surface. Asp181 and His183 in HDAC2 are shown as sticks and colored in following pattern: atom C blue, atom N dark blue, and atom O yellow. The catalytic zinc ion in the active site of HDAC2 is shown as black sphere. SAHA is shown as sticks and colored in following pattern: atom C green, atom N dark blue, and atom O yellow. Entinostat is shown as sticks and colored in following pattern: atom C hot pink, atom N dark blue, and atom O yellow. The SEG of SAHA or entinostat is indicated with white arrow. Hydrogen bonds (H-bonds) are presented by red dash lines. (C) The HDACs/BRD4 dual inhibitors 002-011 were designed by fusing the key pharmacophores of (+)-JQ1 (pink) and HDAC inhibitors (blue), SAHA or entinostat, via various chemical linkers (green). (D) Anti-PEL activities of the new compounds. Five KSHV positive and two KSHV negative lymphoma cell lines were treated with indicated concentrations of these compounds for 72 h. Then the cytotoxicity was determined using the WST-1 assay. (+)-JQ1, SAHA and entinostat were used for the comparisons as single inhibitors. The CC50 for each compound was calculated using GraphPad Prism 5.0 software. Error bars represent S.D. for 3 independent experiments.
(§2) Fig 4 Identification of anti-PEL activities for compound 009 stereoisomers. (A) The chemical structures of anti-HDACs/BRD4 bifunctional molecules 009P1 and 009P2, as well as anti-HDACs or anti-BRD4 mono-functional molecules 009N1, 009N2, 009N3, and 009N4. (B-C) Four KSHV+ PEL cell lines were treated with indicated concentrations of 009P1, 009P2 or 009N1-N4 for 72 h, then the cytotoxicity was determined using the WST-1 assay. (D-I) BCBL-1 cells were treated with these compounds at the respective 2× CC50 for 24 h, then cell cycle (D-F) and apoptosis (G-I) were measured by flow cytometry analysis. Error bars represent S.D. for 3 independent experiments, ** = p<0.01 (vs vehicle control).
(§3) The cell viability following treatment with compounds was assessed by the WST-1 assay (Roche, Indianapolis, Indiana, USA) according to the manufacturer’s protocol as described previously. The absorbance signal was measured using a microplate reader (Biotek Synergy 2). The 50% cytotoxic concentration (CC50) for each compound was calculated from these dose-response curves using the software GraphPad Prism v5.0. Data were normalized as the fold change compared to the DMSO control.

BC-1 = experiment: WST-1 cytotoxicity assay, BC-1 (KSHV+ PEL); assay type: cell-based; settings: Homo sapiens, BC1, 72 h
Description: as §1, §2, §3

BCP-1 = experiment: WST-1 cytotoxicity assay, BCP-1 (KSHV+ PEL); assay type: cell-based; settings: BCP-1, 72 h
Description: as §1, §2, §3

JSC-1 = experiment: WST-1 cytotoxicity assay, JSC-1 (KSHV+ PEL); assay type: cell-based; settings: 72 h
Description: as §1, §2, §3

HUVEC = experiment: WST-1 cytotoxicity on primary cells HUVEC; assay type: cell-based, human
Protocol: as §3
Supplementary file ppat.1011089.s006.tif: S5 Fig Cytotoxicity of tested compounds on HUVEC. The primary cells HUVEC were treated with indicated concentrations of compounds for 72 h, then cell viability was assessed using the WST-1 assay. The CC50 for each compound was calculated from the dose-response curves using Graphpad Prism 5.0 software. Data was normalized as the fold change compared to the DMSO control. (TIF) Click here for additional data file.

BCBL-1 cells = experiment: RNA-Sequencing of compound-treated vs vehicle-treated cells; assay type: cell-based, human; settings: for Ratio, ARC / Ratio, ARRDC3 / Ratio, ATF3 / Ratio, CCDC169-SOHLH2 / Ratio, CD28 / Ratio, CD44 / Ratio, CFAP58 / Ratio, CHAC1 / Ratio, CSF1R / Ratio, DDIT3 / Ratio, DDIT4 / Ratio, FOS / Ratio, IFNG / Ratio, IRF7 / Ratio, LGALS9B / Ratio, MCM5 / Ratio, PRKCB / Ratio, RP11-707M3.3 / Ratio, SOCS3 / Ratio, SPINT1: gene expression, treated vs vehicle BCBL-1 cells
Protocol: RNA-Sequencing (RNA-Seq) of triplicate samples was performed by BGI Americas Corporation using their unique DNBSEQ sequencing technology. The completed RNA-Sequencing data was submitted to NCBI Sequence Read Archive (SRA# # PRJNA813422). Raw sequencing reads were analyzed using the RSEM software (version 1.3.0; human GRCh38 genome sequence and annotation) and gene expression was quantified as previously described. The EBSeq software was utilized to call differentially expressed genes that were statistically significant using a false discovery rate (FDR) less than 0.05. Differentially expressed genes between compounds- and vehicle-treated PEL cells were used as input for the GO enrichment analyses.

[1] = Pharmacokinetics in plasma of mice (LC-MS/MS); settings: male, NOD/SCID, mouse, in vivo
Protocol: The i.p. and p.o. dose were formulated with DMSO/PEG300/Tween80/saline (5/30/10/55). Samples were obtained at 0.25, 0.5, 1, 2, 4, and 8 hours post dosing via tail snipping, transferred into plastic microcentrifuge tubes containing 4 μL of K2-EDTA (0.5 M) as anti-coagulant and placed on wet ice until centrifugation. Harvested blood samples were centrifuged shortly after collection at 4,000 g 4°C for 10 minutes. After centrifugation, the amount of compounds in the plasma was determined using HPLC-coupled tandem mass spectrometry (LC-MS/MS). Values are calculated from arithmetic mean plasma concentrations (n = 3 mice per condition). AUClast and t1/2 were determined using GraphPad Prism v5.0. The bioavailability F (%) = AUClast for p.o. / AUClast for i.p. × 100 [50].

BRD4 = BRD4 signaling by Western blot (c-Myc expression); assay type: cell-based
[2] = read-out: KSHV-infected lymphomas CC50, BCBL-1
[3] = read-out: KSHV-infected lymphomas CC50, BC-1
[4] = read-out: KSHV-infected lymphomas CC50, BCP-1
[5] = read-out: KSHV-infected lymphomas CC50, JSC-1
[6] = ip, mice, single i.p. 50 mg/kg, plasma, read-out: AUClast
[7] = ip, mice, single i.p. 50 mg/kg, plasma, read-out: Cmax
[8] = ip, mice, single i.p. 50 mg/kg, plasma, read-out: Tmax
[9] = ip, mice, single i.p. 50 mg/kg, plasma, read-out: t1/2 (converted)
[10] = BCBL-1 cells, 48 h, Western blot

O=C(CCCCCCC(=O)Nc1ccccc1)NO [SAHA, suberoylanilide hydroxamic acid, reference compound]
CC50 (BCBL-1; [2]): 41 nM | CC50 (BC-1; [3]): 1380 nM | CC50 (BCP-1; [4]): 1420 nM | CC50 (JSC-1; [5]): 680 nM | Cytotoxicity in primary cells HUVEC (HUVEC; 72 h, WST-1): moderate cytotoxicity | Ratio, ARC (BCBL-1 cells): 10.26 | Ratio, ARRDC3 (BCBL-1 cells): 7.834 | Ratio, ATF3 (BCBL-1 cells): 33.64 | Ratio, CCDC169-SOHLH2 (BCBL-1 cells): 0.1697 | Ratio, CD28 (BCBL-1 cells): 0.3793 | Ratio, CD44 (BCBL-1 cells): 0.293 | Ratio, CFAP58 (BCBL-1 cells): 0.411 | Ratio, CHAC1 (BCBL-1 cells): 53.96 | Ratio, CSF1R (BCBL-1 cells): 3.864 | Ratio, DDIT3 (BCBL-1 cells): 16.62 | Ratio, DDIT4 (BCBL-1 cells): 5.426 | Ratio, FOS (BCBL-1 cells): 21.04 | Ratio, IFNG (BCBL-1 cells): 0.312 | Ratio, IRF7 (BCBL-1 cells): 5.624 | Ratio, LGALS9B (BCBL-1 cells): 0.3605 | Ratio, MCM5 (BCBL-1 cells): 0.4255 | Ratio, PRKCB (BCBL-1 cells): 0.3013 | Ratio, RP11-707M3.3 (BCBL-1 cells): 0.2461 | Ratio, SOCS3 (BCBL-1 cells): 9.781 | AUC(0-t) [1, 6]: 12000 ng·h/mL | Cmax [1, 7]: 16600 ng/mL | Tmax [1, 8]: 0.25 h | half-life [1, 9]: 0.72 h | c-Myc expression (BRD4; [10]): subtle effect

Cc1sc2c(c1C)C(c1ccc(Cl)cc1)=N[C@@H](CC(=O)OC(C)(C)C)c1nnc(C)n1-2 [(+)-JQ1, reference compound]
CC50 (BCBL-1; [2]): 18 nM | CC50 (BC-1; [3]): 44 nM | CC50 (BCP-1; [4]): 59 nM | CC50 (JSC-1; [5]): 41 nM | Cytotoxicity in primary cells HUVEC (HUVEC; 72 h, WST-1): moderate cytotoxicity | Ratio, ARC (BCBL-1 cells): 21.83 | Ratio, ARRDC3 (BCBL-1 cells): 27.58 | Ratio, ATF3 (BCBL-1 cells): 28.74 | Ratio, CCDC169-SOHLH2 (BCBL-1 cells): 0.1299 | Ratio, CD28 (BCBL-1 cells): 0.05544 | Ratio, CD44 (BCBL-1 cells): 0.09101 | Ratio, CFAP58 (BCBL-1 cells): 0.2089 | Ratio, CHAC1 (BCBL-1 cells): 55.65 | Ratio, CSF1R (BCBL-1 cells): 62.41 | Ratio, DDIT3 (BCBL-1 cells): 20.73 | Ratio, DDIT4 (BCBL-1 cells): 28.37 | Ratio, FOS (BCBL-1 cells): 78.64 | Ratio, IFNG (BCBL-1 cells): 0.1251 | Ratio, IRF7 (BCBL-1 cells): 52.67 | Ratio, LGALS9B (BCBL-1 cells): 0.04587 | Ratio, MCM5 (BCBL-1 cells): 0.1471 | Ratio, PRKCB (BCBL-1 cells): 0.06358 | Ratio, RP11-707M3.3 (BCBL-1 cells): 0.2212 | Ratio, SOCS3 (BCBL-1 cells): 37.19 | Ratio, SPINT1 (BCBL-1 cells): 0.1876 | AUC(0-t) [1, 6]: 78000 ng·h/mL | Cmax [1, 7]: 28700 ng/mL | Tmax [1, 8]: 1 h | half-life [1, 9]: 2.27 h | c-Myc expression (BRD4): drastically downregulated

Cc1sc2c(c1C)C(c1ccc(Cl)cc1)=N[C@@H](CC(=O)O[C@H](C)c1ccc(C(=O)Nc3ccccc3N)cc1)c1nnc(C)n1-2 [009P1, (R)-1-(4-((2-aminophenyl)carbamoyl)phenyl)ethyl 2-((S)-4-(4-chlorophenyl)-2,3,9-trimethyl-6H-thieno[3,2-f][1,2,4]triazolo[4,3-a][1,4]diazepin-6-yl)acetate]
CC50 (BCBL-1; read-out: CC50, BCBL-1): 16 nM | CC50 (BC-1; read-out: CC50, BC-1): 42 nM | CC50 (BCP-1; read-out: CC50, BCP-1): 120 nM | CC50 (JSC-1; read-out: CC50, JSC-1): 300 nM | Cytotoxicity in primary cells HUVEC (HUVEC): much less cytotoxicity | Genes differentially expressed between 009P1- and 009P2-treated PEL cells (BCBL-1 cells; BCBL-1, ≥ 2 fold-change and FDR < 0.05): 473 genes | Ratio, ARC (BCBL-1 cells): 18.81 | Ratio, ARRDC3 (BCBL-1 cells): 30.72 | Ratio, ATF3 (BCBL-1 cells): 12.86 | Ratio, CCDC169-SOHLH2 (BCBL-1 cells): 0.3358 | Ratio, CD28 (BCBL-1 cells): 0.4509 | Ratio, CD44 (BCBL-1 cells): 0.1954 | Ratio, CFAP58 (BCBL-1 cells): 0.1358 | Ratio, CHAC1 (BCBL-1 cells): 8.345 | Ratio, CSF1R (BCBL-1 cells): 24.82 | Ratio, DDIT3 (BCBL-1 cells): 12.33 | Ratio, DDIT4 (BCBL-1 cells): 21.76 | Ratio, FOS (BCBL-1 cells): 46.18 | Ratio, IFNG (BCBL-1 cells): 0.1678 | Ratio, IRF7 (BCBL-1 cells): 23.79 | Ratio, LGALS9B (BCBL-1 cells): 0.03812 | Ratio, MCM5 (BCBL-1 cells): 0.2002 | Ratio, PRKCB (BCBL-1 cells): 0.02626 | Ratio, RP11-707M3.3 (BCBL-1 cells): 0.3443 | Ratio, SOCS3 (BCBL-1 cells): 41.42 | Ratio, SPINT1 (BCBL-1 cells): 0.1504 | bioavailability ([1]; 50 mg/kg): 24.5% | AUC(0-t) ([1]; ip, 50 mg/kg): 159000 ng·h/mL | Cmax ([1]; ip, 50 mg/kg): 74600 ng/mL | Tmax ([1]; ip, 50 mg/kg): 1 h | half-life ([1]; ip, 50 mg/kg): 1.66 h | AUC(0-t) ([1]; po, 50 mg/kg): 39000 ng·h/mL | Cmax ([1]; po, 50 mg/kg): 11500 ng/mL | Tmax ([1]; po, 50 mg/kg): 0.5 h | half-life ([1]; po, 50 mg/kg): 1.12 h | c-Myc expression (BRD4; [10]): decreased
